# Data taken from patent EP0029617A1, “Use of tertiary heterocyclic amines as synergists in pesticides; derivatives of cycloamines” (priority 1979, dated 1981).
# Test system: Kornkäfer (sitophilus granarius L)
# Test: whole plant or invertebrate
# Assay type: in vivo
# Conditions: for mortality at 1000 µg/mL: read-out: Wirksamkeit in % Substanz allein
# Description: Test von tertiären, heterocyclischen Aminen allein und im Gemisch mit Pyrethroiden an Kornkäfern (sitophilus granarius L)
# In Petrischalen mit 15 cm Durchmesser mit talcumbepuderten Seitenwänden, um das Entfliehen der Kornkäfer zu verhindern, wurden jeweils 2 ml der Acetonlösungen einpipettiert und durch vorsichtiges Schwenken der Schalen gleichmäßig auf dem Boden verteilt. Nach dem Abdampfen des Acetons und dem Antrocknen der Beläge wurden in jede Schale 25 Kornkäfer eingezählt. Nach einer Stunde wurde jeweils ein 12,5 cm Rundfilter in die Schalen eingelegt, um den Käfern das Befreien aus der Rückenlage zu ermöglichen, was auf der glatten Glasplatte nicht möglich ist. Die lichtscheuen Käfer verkrochen sich mit Vorliebe unter die Filter und blieben so ständig mit den Wirkstoffbelägen in Kontakt. Alle Versuche liefen mit 3 Wiederholungen. Nach 3 h wurden die toten Käfer ausgezählt.
# In der Tabelle 3 ist jeweils der Durchschnitt der Summe der 4 Einzelwerte angegeben. 25 tote Kornkäfer entsprechen dabei einer Wirkung von 100 %. Die Temperaturen betrugen während der Tests im Durchschnitt 19 - 21°C. Der synergistische Faktor berechnet sich analog wie in Beispiel 1 angegeben.
# Die zu prüfenden tertiären, heterocyclischen Amine wurden - mit 1 mg Wirkstoff pro ml als Acetonlösungen angesetzt. Sie wurden im Verhältnis 1 : 1 mit Ripcord bzw. Talcord, die mit 0,01 mg Wirkstoff pro ml als Acetonlösung vorlagen, gemischt. Die Einzelkomponenten wurden im Verhältnis 1 : 1 mit Aceton gemischt.
# Auch bei diesen Versuchen zeigten die Kontrollversuche stets bei Versuchsende eine Mortalität der Kornkäfer von 0 %.
# Die synergistische Wirkung der tertiären, heterocyclischen Amine auf die Pyrethroide ist auch dann noch deutlich, wenn das Amin in wesentlich niederen Aufwandmengen eingesetzt wird, als dies in Beispiel 3 beschrieben wurde. Die Ergebnisse sind in der Tabelle 4 zusammengestellt. Dieser Versuch zeigt auch, daß Amine mit insektiziden Eigenschaften, wenn sie in Konzentrationen unterhalb ihres insektiziden Wirkungsbereiches eingesetzt werden, immer noch gute synergistische Wirkungen im Gemisch mit Pyrethroiden zeigen. Die Versuche wurden wie im Beispiel 3 beschrieben mit Kornkäfern durchgeführt. Es wurden lediglich die Konzentrationen der eingesetzten tertiären, heterocyclischen Amine geändert. Für die Verdünnung Pyrethroid : Amin = 1 : 10 wurde das Amin mit 0,1 mg Wirkstoff/ml Acetonlösung eingesetzt. Für die Verdünnung 1 : 5 mit 0,05 mg Wirkstoff/ml.
# [1] = Sitophilus granarius, amine 1 mg/ml in Aceton mixed 1 : 1 with Aceton, 2 ml per dish, 25 weevils, dead counted after 3 h
# [2] = amine 1 mg/ml + Ripcord 0,01 mg/ml
# [3] = amine 1 mg/ml + Talcord 0,01 mg/ml
# [4] = amine 1 mg/ml mixed 1 : 1 with Ripcord 0,01 mg/ml, 3 h
# [5] = amine 1 mg/ml mixed 1 : 1 with Talcord 0,01 mg/ml, 3 h
# [6] = amine 1 mg/ml in Aceton mixed 1 : 1 with Aceton, 2 ml per dish, 25 weevils, dead counted after 3 h
# [7] = Pyrethroid : Amin 1 : 10, amine 0,1 mg/ml, 180 min
# [8] = sitophilus granarius, in vivo, 3 h
Compound,mortality at 1000 µg/mL [1],Synergistischer Faktor bei Ripcord [2],Synergistischer Faktor bei Talcord [3],Wirksamkeit in % Substanz +Ripcord [4],Wirksamkeit in % Substanz +Talcord [5],Wirksamkeit in % Substanz allein [6],other results
c1ccc(CN2CCOCC2)cc1 [N-Benzyl-morpholin],0%,"1,43","2,19","45,2%","21,2%",,
CCOC(=O)C(CC)N1CCOCC1 (stereo not drawn) [2-N-Morpholino-buttersäure-ethylester],,"1,56","3,30","49,2%","32,0%",0%,
CCCCCN1CCCCC1 [N-1-Pentyl-piperidin],0%,"1,94","2,06","61,2%","20,0%",,
CCCCCC(C=O)CN1CCCCC1 (stereo not drawn) [N-Piperidino-methyl-heptanal],,,,"49,2%","60,0%",0%,"Synergistischer Faktor bei Ripcord (in vivo): 1,56; Synergistischer Faktor bei Talcord (in vivo): 6,19"
CCOCCN1CCCCC1 [N-1-Ethoxi-ethyl-(2)-piperidin],,"1,78",,"56,0%",0%,0%,
CCCCCCCCCCCN1CCCC1 [N-1-Undecyl-pyrrolidin],,,,,,,"Synergistischer Faktor bei Ripcord (Pyrethroid : Amin 1 : 10): 3,09; Synergistischer Faktor bei Talcord (Pyrethroid : Amin 1 : 10): 7,42; % Wirkung Substanz +Ripcord [7]: 97,2%; % Wirkung Substanz +Talcord [7]: 72,0%; mortality at 100 µg/mL (Sitophilus granarius, 3 h, amine 0,1 mg/ml (as for Pyrethroid : Amin 1 : 10), read-out: % Wirkung Substanz allein): 0%"
C(=Cc1ccccc1)CN1CCOCC1 [N-Cinnamyl-morpholin],0%,"1,74","4,54","54,8%","44,0%",,
C#CCN1CCCCC1CC (stereo not drawn) [N-1-Propanrgyl-2-ethyl-piperidin],,"2,92","3,84","92,0%","37,2%",0%,
"CC1(C)C(C=C(Cl)Cl)C1C(=O)OC(C#N)c1cccc(Oc2ccccc2)c1 (stereo not drawn) [Ripcord, reference compound]",,,,,,,"Wirksamkeit von Ripcord (Ripcord alone, 0,01 mg/ml mixed 1 : 1 with Aceton, 3 h): Wirksamkeit von Ripcord: 31,5%"
CCOCCN1CCCC1 [N-1-(1'-Ethoxiethyl-(2))-pyrrolidin],,"2,22",,"70,0%",0%,0%,
OCCN1CCCC1 [2-N-Pyrrolidino-ethanol],,"2,58","5,48","81,2%","53,2%",0%,
CCCCCCCCCCCCN1CCCC1 [N-1-Dodecyl-pyrrolidin],89.3%,,,"92,0%","96,0%",,
"C(CCCN1CCCCC1)CCN1CCCCC1 [1,6-N,N-Di-piperidino-hexan]",,"2,82",,"57,2%","2,8%",0%,
CCOC(=O)C(CC)N1CCCCC1 (stereo not drawn) [2-N-Piperidino-buttersäure-ethylester],,"1,94","5,36","61,2%","52,0%",0%,
"c1ccc(C(N2CCCCC2)N2CCCCC2)cc1 [Benzal-di-N,N-piperidin]",,,,"40,0%","18,8%",0%,"Synergistischer Faktor bei Ripcord (in vivo): 1,26; Synergistischer Faktor bei Talcord (in vivo): 1,94"
Clc1ccc(CN2CCCCC2)cc1 [N-4-Chlor-benzyl-piperidin],,"2,37","4,82","74,8%","46,8%",0%,
OCCN1CCOCC1 [N-Ethanol-morpholin],,"2,12","4,0","66,8%","38,8%",0%,
c1ccc(CN2CCCC2)cc1 [N-Benzyl-pyrrolidin],0%,"2,45","1,65","77,2%","16,0%",,
c1cc2c(cc1CN1CCOCC1)OCO2 [N-Piperonyl-morpholin],0%,"2,32","3,84","73,2%","37,2%",,
c1ccc2cc(CN3CCCCC3)ccc2c1 [2-N-Piperidino-methyl-naphthalin],,"3,05","9,07","96,0%","88,0%",0%,
O=C1CCCCC1CN1CCCCC1 (stereo not drawn) [2-N-Piperidino-methyl-cyclo-hexanon],,"1,65","1,65","70,8%","34,8%","18,8%",
CCCCCN1CCOCC1 [N-1-Pentyl-morpholin],0%,"2,79","3,83","88,0%","37,2%",,
1-N-p-Menthen-piperidin,,"1,90","7,42","60,0%","72,0%",0%,
CCCCOCCOCCN1CCCCCC1 [N-(2'-Butoxi-diethylether-(2))-hexamethylenimin],,,,,,,"Synergistischer Faktor bei Ripcord (in vivo): 2,50; Synergistischer Faktor bei Talcord (in vivo): 3,30; Wirksamkeit in % Substanz +Ripcord [8]: 78,8%; Wirksamkeit in % Substanz +Talcord [8]: 32,0%; Wirksamkeit in % Substanz allein [8]: 0%"
c1ccc(OCCN2CCCCCC2)cc1 [N-2-Phenoxi-ethyl-(1)-hexa-methylenimin],,"2,70","5,09","85,2%","49,4%",0%,
"C(CCCN1CCCC1)CCN1CCCC1 [1,6-N,N-Di-pyrrolidino-hexan]",,"2,52","4,24","77,2%","41,2%",0%,
O=[N+]([O-])c1ccc(CN2CCCCC2)cc1 [N-4-Nitro-benzyl-piperidin],2.8%,"1,47","1,77","49,2%","20,0%",,
CCCCCCCCCCN1CCOCC1 [N-1-Decyl-morpholin],0%,"2,32","8,37","73,1%","81,2%",,
C1CCCC(N2CCOCC2)CC1 [N-Cycloheptyl-morpholin],0%,"1,78","3,59","56,0%","34,8%",,
CCCCCCCCCCCCCN1CCCC1 [N-1-Tridecyl-pyrrolidin],22.8%,"1,78","2,19","78,8%","44,0%",,
